Experimental data taken from article PMC5025651, “Reprofiled anthelmintics abate hypervirulent stationary-phase Clostridium difficile” (Scientific Reports, 2016).
≈ marks a conversion by molar mass, not a printed value.

Key:
[1] = test system: C. difficile strain 630 (CD630, ATCC BAA-1382-FZ, ribotype 012); assay: MIC by broth microdilution; format: cell-based, Clostridium difficile; conditions: for MIC: Clostridioides difficile, ATCCBAA1382, BHIS broth, anaerobic, 20–24 h, n = 2; for in vitro activity against CD630 (in words): growth inhibition, MIC assay
[2] = test system: C. difficile strain 4118 (CD4118, ATCC BAA-1870, ribotype 027); assay: MIC by broth microdilution; format: cell-based, Clostridium difficile; conditions: for MIC: Clostridioides difficile, ATCCBAA1870, BHIS broth, anaerobic, 20–24 h, n = 2, read-out: MIC C. difficile 4118; for in vitro activity against CD4118 (in words): growth inhibition, MIC assay
P. aeruginosa PAO1 = assay: MIC by broth microdilution; format: cell-based; conditions: Pseudomonas aeruginosa; P. aeruginosa PAO1; CAMHB, aerobic; duplicate; read-out: MIC
B. subtilis ATCC 6051 = assay: MIC by broth microdilution; format: cell-based; conditions: Bacillus subtilis, ATCC6051; B. subtilis ATCC 6051; CAMHB, aerobic; duplicate; read-out: MIC
[3] = test system: B. breve Strain EX336960VC19; assay: MIC by broth microdilution; format: cell-based; conditions: Bifidobacterium breve; B. breve EX336960VC19; LSM broth, anaerobic; duplicate; read-out: MIC
P. distasonis ATCC 8503 = assay: MIC by broth microdilution; format: cell-based; conditions: Parabacteroides distasonis, ATCC8503; P. distasonis ATCC 8503; supplemented Brucella broth, anaerobic; duplicate; read-out: MIC
L. plantarum ATCC 8014 = assay: MIC by broth microdilution; format: cell-based; conditions: Lactiplantibacillus plantarum, ATCC8014; L. plantarum ATCC 8014; CAMHB with 5% laked horse blood, ~48 h; duplicate; read-out: MIC
[4] = test system: B. longum subsp. longum Strain 44B; assay: MIC by broth microdilution; format: cell-based; conditions: Bifidobacterium longum; B. longum subsp. longum 44B; LSM broth, anaerobic; duplicate; read-out: MIC
P. nigrescens ATCC 33563 = assay: MIC by broth microdilution; format: cell-based; conditions: Prevotella nigrescens, ATCC33563; P. nigrescens ATCC 33563; supplemented Brucella broth, anaerobic; duplicate; read-out: MIC
S. epidermidis 1457 = assay: MIC by broth microdilution; format: cell-based; conditions: Staphylococcus epidermidis; S. epidermidis 1457; CAMHB, aerobic; duplicate; read-out: MIC
A. baumannii M2 = assay: MIC by broth microdilution; format: cell-based; conditions: Acinetobacter baumannii; A. baumannii M2; CAMHB, aerobic; duplicate; read-out: MIC
S. aureus RN4220 = assay: MIC by broth microdilution; format: cell-based; conditions: Staphylococcus aureus, CAMHB, aerobic, duplicate
[5] = test system: B. fragilis Strain CL05T00C42; assay: MIC by broth microdilution; format: cell-based; conditions: Bacteroides fragilis; B. fragilis CL05T00C42; supplemented Brucella broth, anaerobic; duplicate; read-out: MIC
[6] = test system: B. thetaiotaomicron ATCC 29148; assay: microbe, parasite or virus in culture; format: cell-based; conditions: Bacteroides thetaiotaomicron, ATCC29148; B. thetaiotaomicron ATCC 29148; supplemented Brucella broth, anaerobic; duplicate; read-out: MIC
[7] = test system: L. johnsonii Strain 135-1-CHN; assay: MIC by broth microdilution; format: cell-based; conditions: Lactobacillus johnsonii, STRAIN1351CHN; L. johnsonii 135-1-CHN; CAMHB with 5% laked horse blood, ~48 h; duplicate; read-out: MIC
[8] = test system: L. reuteri Strain CF48-3A; assay: MIC by broth microdilution; format: cell-based, Lactobacillus reuteri; conditions: Limosilactobacillus reuteri; L. reuteri CF48-3A; CAMHB with 5% laked horse blood, ~48 h; duplicate; read-out: MIC
[9] = test system: C. clostridioforme ATCC 25537; assay: MIC by broth microdilution; format: cell-based, Clostridium clostridioforme; conditions: Clostridium, ATCC25537; C. clostridioforme ATCC 25537; BHIS, anaerobic; duplicate; read-out: MIC
C. sporogenes ATCC 15579 = assay: MIC by broth microdilution; format: cell-based; conditions: Clostridium sporogenes, ATCC15579, BHIS, anaerobic, duplicate

Row | SMILES | MIC [1] | in vitro activity against CD630 (in words) [1] | MIC [2] | in vitro activity against CD4118 (in words) [2] | other results
1 | O=C(Nc1ccc(Oc2ccccc2)cc1)c1cc(I)cc(I)c1O [Compound 5a] | 0.5 µg/mL (≈ 0.897 µM) | exhibited in vitro activity | 1 µg/mL (≈ 1.79 µM) | exhibited in vitro activity | 
2 | COc1c(I)cc(I)cc1C(=O)Nc1ccc(Oc2ccccc2)cc1 [Compound 5b] | > 32 µg/mL | inactive | > 32 µg/mL | inactive | 
3 | O=C(Nc1ccc(Oc2ccccc2)cc1)c1cc(I)cc(I)c1 [Compound 5c] | > 32 µg/mL | inactive | > 32 µg/mL | inactive | 
4 | CN(C(=O)c1cc(I)cc(I)c1O)c1ccc(Oc2ccccc2)cc1 [Compound 5d] | > 32 µg/mL | inactive | > 32 µg/mL | inactive | 
5 | O=C(Nc1ccc(Oc2ccc(F)cc2)cc1)c1cc(I)cc(I)c1O [Compound 5e] | 0.13 µg/mL (≈ 0.226 µM) | exhibited in vitro activity | 0.13 µg/mL (≈ 0.226 µM) | exhibited in vitro activity | 
6 | Cc1ccc(Oc2ccc(NC(=O)c3cc(I)cc(I)c3O)cc2)cc1 [Compound 5f] | 0.13 µg/mL (≈ 0.228 µM) | exhibited in vitro activity | 0.25 µg/mL (≈ 0.438 µM) | exhibited in vitro activity | 
7 | O=C(Nc1ccc(Oc2ccc(Cl)cc2)cc1)c1cc(I)cc(I)c1O [Compound 5g] | 0.13 µg/mL (≈ 0.22 µM) | exhibited in vitro activity | 0.25 µg/mL (≈ 0.423 µM) | exhibited in vitro activity | 
8 | COc1c(I)cc(I)cc1C(=O)Nc1ccc(Oc2ccc(Cl)cc2)cc1 [Compound 5h] | > 32 µg/mL | inactive | > 32 µg/mL | inactive | 
9 | O=C(Nc1ccc2ccccc2c1)c1cc(I)cc(I)c1O [Compound 6a] | 0.5 µg/mL (≈ 0.971 µM) | exhibited in vitro activity | 0.5 µg/mL (≈ 0.971 µM) | exhibited in vitro activity | MIC (P. aeruginosa PAO1): > 32 µg/mL; MIC (B. subtilis ATCC 6051): 0.06 µg/mL (≈ 0.116 µM); MIC [3]: 32 µg/mL (≈ 62.1 µM); MIC (P. distasonis ATCC 8503): 16 µg/mL (≈ 31.1 µM); MIC (L. plantarum ATCC 8014): > 32 µg/mL; MIC [4]: 32 µg/mL (≈ 62.1 µM); MIC (P. nigrescens ATCC 33563): 8 µg/mL (≈ 15.5 µM); MIC (S. epidermidis 1457): 0.06 µg/mL (≈ 0.116 µM); MIC (A. baumannii M2): > 32 µg/mL; MIC (S. aureus RN4220): 0.25 µg/mL (≈ 0.485 µM); MIC [5]: 32 µg/mL (≈ 62.1 µM); MIC [6]: > 32 µg/mL; MIC [7]: 32 µg/mL (≈ 62.1 µM); MIC [8]: 32 µg/mL (≈ 62.1 µM); MIC [9]: 4 µg/mL (≈ 7.77 µM); MIC (C. sporogenes ATCC 15579): 8 µg/mL (≈ 15.5 µM)
10 | COc1c(I)cc(I)cc1C(=O)Nc1ccc2ccccc2c1 [Compound 6b] | > 32 µg/mL | inactive | > 32 µg/mL | inactive | 
